Source: patent publication US20160202206A1, “Matrix-Enhanced Electrochemical Detector for Pathogenic Bacteria” (NORTHEASTERN UNIVERSITY, priority 2013, published 2016)
Read-outs that look alike come from different tables or passages of the source.

Key:
P. aeruginosa cultures = settings: cited from earlier work
[1] = tested on: P. aeruginosa strain PA14; assay type: cell-based, Pseudomonas aeruginosa; settings: for time to appearance of a pyocyanin signal: M63 minimal media, versus no added amino acid (nearly 24 hours); for effect on pyocyanin production: M63 minimal media or TSB, single amino acid added (tyrosine 3.2 mM, valine 17.6 mM); for up-regulatory effect on pyocyanin production compared with the other amino acids tested: six amino acids tested, M63 minimal media and TSB, scans over 24 hours
Method: All bacterial tests were completed using wild-type P. aeruginosa strain PA14. Cell cultures were routinely grown in trypticase soy broth (TSB) (BD Biosciences 211768) at 37° C. and later stored on TSB agar plates at 4° C. when not in use. All amino acids were purchased from Sigma-Aldrich (St. Louis, Mo.) and dissolved in solution using either TSB or M63 minimal salts medium (Fisher Cat. 50-751-6740) [(NH4)2SO4 (15 mM), KH2PO4 (100 mM)] supplemented with MgSO4 (1 mM) and glycerol (0.027 mM). Electrochemical measurements were performed using commercially available Zensor TE100 (EDAQ ET077) screenprinted electrodes featuring carbon working and counter electrodes. Although the Zensor TE100 electrodes include a silver paste reference, a separate 1 M KCl Ag/AgCl reference electrode (CHI111) was employed to minimize the chances of drift in reference potential during measurements lasting several hours, which can occur when the reference electrode is in direct contact with the sample solution. All electrochemical measurements were recorded using a potentiostat (CHI842C, CH Instruments).
Individual amino acids were dissolved at specific concentrations in either 10 mL of TSB or M63 media. Each solution was inoculated with a specific concentration of P. aeruginosa and incubated at 37 C. […] of each solution was removed at designated time points and loaded onto a Zensor electrode for electrochemical testing. Square-wave voltammetric scans were performed at potentials ranging from −0.4 to −0.1 V at an amplitude voltage of 0.050 V and a frequency of 15 Hz. Scans were performed for each sample three times with three replicates for each tested condition. The data was analyzed using OriginPro 9.1 (OriginLab Corporation). Baselines were created for each data set using spline interpolation with 8 base points. The resulting baseline-subtracted data set was used to determine the max currents observed from pyocyanin production.
Liquid cultures of P. aeruginosa were grown in either M63 minimal media or TSB to observe the effect of amino acid addition on the bacteria's production of pyocyanin using the methods described in Example 2. 10 μL of stock PA14 culture was loaded into 10 mL liquid cultures each containing one of six different amino acids (final concentration of 4 million cells per mL). […] Electrochemical scans were taken roughly every two hours over the course of a 24-hour period.
Tyrosine and valine were prepared at concentrations ranging from those quantified in typical cystic fibrosis infection levels (tyrosine: 0.2 mM, valine: 1.1 mM) to an 80-fold increase, which reached the solubility limit of the amino acids in TSB. The initial concentration of P. aeruginosa loaded in each sample was kept constant at roughly 4 million cells per mL and electrochemical scans were taken every two hours over the course of ten hours. FIGS. 11 A and B show scans taken after eight hours of growth in addition to a control with no amino acid additives. Again, consistent among all scans was the observance of a pyocyanin peak around −0.25 V vs. a Ag/AgCl reference. […] It is possible that valine has an inhibitory effect on pyocyanin production at such high concentrations. While such inhibition has been observed for other molecules (D. J. Musk, D. A. Banko and P. J. Hergenrother, Chem. Biol., 2005, 12, 789-796), P. aeruginosa has not been previously studied at valine concentrations that are over 100 times greater than what is typically found in a pseudomonal infection.
The next set of tests studied how varying the initial P. aeruginosa cell concentration would affect the production of pyocyanin in the presence of amino acids. TSB media was used as the growth media to which tyrosine and valine were added. Tyrosine (16 mM) and valine (17.6 mM) concentrations were held constant while varying amounts of P. aeruginosa were added into the samples (4, 20, 40, 400 million cells per mL). […]

| SMILES | effect on biofilm formation (P. aeruginosa cultures) | time to appearance of a pyocyanin signal [1] | effect on pyocyanin production ([1]; 4 million cells per mL) | effect of varying amino acid concentration on amounts of pyocyanin produced after the critical time point ([1]; TSB, 4 million cells per mL) | effect of varying amino acid concentration on time needed for cells to up-regulate pyocyanin production ([1]; TSB, 4 million cells per mL) | rate of pyocyanin production, 16 mM tyrosine compared with 17.6 mM valine ([1]; TSB, 4 million cells per mL) | up-regulatory effect on pyocyanin production compared with the other amino acids tested [1] | other results |
| --- | --- | --- | --- | --- | --- | --- | --- | --- |
| N=C(N)NCCC[C@H](N)C(=O)O [arginine] | up-regulate biofilm formation | – | – | – | – | – | – | – |
| N[C@@H](Cc1c[nH]cn1)C(=O)O [histidine] | up-regulate biofilm formation | significantly less time | – | – | – | – | – | – |
| CC(C)C[C@H](N)C(=O)O [leucine] | up-regulate biofilm formation | – | – | – | – | – | – | – |
| O=C(O)[C@@H]1CCCN1 [proline] | up-regulate biofilm formation | – | – | – | – | – | – | – |
| N[C@@H](Cc1ccc(O)cc1)C(=O)O [tyrosine] | up-regulate biofilm formation | significantly less time | up-regulatory effect | significant effect | minimal effect | nearly identical | greatest up-regulatory effect in both media | time of statistically significant increase in current output ([1]; TSB, 16 mM tyrosine, 400 million cells per mL, FIG. 14 A): between four and six hours; time of statistically significant increase in current output ([1]; TSB, 4 million cells per mL, FIG. 12 A): between six and eight hours; pyocyanin produced, 16 mM tyrosine versus 17.6 mM valine ([1]; TSB, initial cell concentrations above 4 million cells per mL): more pyocyanin than 17.6 mM valine; up-regulatory effect on pyocyanin production compared with the other amino acids tested ([1]; listed as Tyrosine): largest up-regulatory effect of the six amino acids tested |
| CC(C)[C@H](N)C(=O)O [valine] | up-regulate biofilm formation | – | up-regulatory effect | significant effect | minimal effect | nearly identical | largest up-regulatory effect of the six amino acids tested | pyocyanin production when concentration raised to 88 mM ([1]; TSB, 88 mM versus 17.6 mM valine): decreased; amino acid concentration giving the largest pyocyanin concentration ([1]; TSB, 4 million cells per mL, eight hours of growth): 17.6 mM |
